Measured values from US8945929B2, “Marker for determination of sensitivity to anti-cancer agent” (Keio University, priority 2008, dated 2015).
Structures can show the parent of a compound that is named as a salt.

Experiments:
[1] = background statement; cited from earlier work
[2] = system: cultured human colorectal cancer cells, HCT-116; settings: HCT-116, as obtained from Yakult Honsha; cited from earlier work
[3] = system: cultured human colorectal cancer cells, HT-29; settings: HT-29, as obtained from Yakult Honsha; cited from earlier work
[4] = system: cultured human colorectal cancer cells, HCT-116; experiment: Tumor size in nude mice with subcutaneously transplanted HCT-116 cells; type: in vivo, nude mice (BALB/cAJcl-nu/nu); settings: 7 days after the administration
Procedure: (§1) Six-week-old, male nude mice (BALB/cAJcl-nu/nu) purchased from CLEA Japan, Inc. were used and allowed to ingest a general feed and drink water freely in a thermostatic chamber. A protocol following the animal experiment guideline in School of Medicine, Keio University was applied and then approved. Then, this examination was carried out humanely.
(§2) CAMPTO™ as a preparation of CPT-11 and a solvent for dissolving Campto (hereinafter, referred to as “solvent”) were obtained from Yakult Honsha, Co., Ltd.
(§3) After the transplantation, a tumor size was measured by using the following formula: (longer tumor diameter)×(shorter tumor diameter)^2/2. When the tumor size reached 300 to 400 mm^3, the mice were randomly assigned to a CPT-11 administration group and a solvent administration group (a CPT-11 non-administration group). The day when the mice were assigned to two groups was defined as day 0. CAMPTO™ as a preparation of CPT-11 in an amount of 4.5 mL/kg (90 mg/kg as CPT-11 amount) and the solvent for dissolving CAMPTO™ (D-sorbitol, lactic acid, pH adjuster) were administered slowly to the CPT-11 administration group and a CPT-11 non-administration group, respectively, from the tail vein. The tumor size was measured on day 0, and 12 hours, 24 hours, 72 hours, and 7 days after the administration. The blood was collected after the dissection. After the centrifugation of the collected blood at 10,000 rpm for 10 minutes, a serum fraction was frozen with liquid nitrogen and stored at −80° C. until the serum fraction was used in preparation of a sample for metabolome analysis. As a control group, a cancer cell-non-transplanted group was produced and the same treatment was carried out.
After the transplantation, a tumor size was measured by using the following formula: (longer tumor diameter)×(shorter tumor diameter)^2/2. When the tumor size reached 300 to 400 mm^3, the mice were randomly assigned to a CPT-11 administration group and a solvent administration group. The tumor size was measured on day 0, and 12 hours, 24 hours, 72 hours, and 7 days after the administration. […]

[5] = system: cultured human colorectal cancer cells, HCT-116; experiment: Serum metabolome (CE-TOFMS) of HCT-116 cancer-bearing mice after CPT-11; type: in vivo, nude mice (BALB/cAJcl-nu/nu); settings: HCT-116 transplanted, 90 mg/kg as CPT-11
Procedure: as §3, with “After the centrifugation of the collected blood at 10,000 rpm for 10 minutes, a serum fraction was frozen with liquid nitrogen and stored at −80° C. until the serum fraction was used in preparation of a sample for metabolome analysis. As a control group, a cancer cell-non-transplanted group was produced and the same treatment was carried out.” left out
(§4) The comprehensive measurement of the metabolites in a serum was carried out by using a capillary electrophoresis time-of-flight mass spectrometry (CE-TOFMS) system manufactured by Agilent Technologies, Inc. In this examination, a voltage was applied such that an output of the capillary was a cathode, and cationic metabolites were comprehensively measured. […]

[6] = system: cultured human colorectal cancer cells, HT-29; experiment: Tumor size in nude mice with subcutaneously transplanted HT-29 cells; type: in vivo, nude mice (BALB/cAJcl-nu/nu); settings: conclusion from tumor size, 7 days after the administration
Procedure: as §1, §2
After the transplantation, a tumor size was measured by using the following formula: (longer tumor diameter)×(shorter tumor diameter)^2/2. When the tumor size reached 300 to 400 mm^3, the mice were randomly assigned to a CPT-11 administration group and a solvent administration group (a CPT-11 non-administration group). The day when the mice were assigned to two groups was defined as day 0. […] The tumor size was measured on day 0, and 12 hours, 24 hours, 72 hours, and 7 days after the administration. […]
After the transplantation, a tumor size was measured by using the following formula: (longer tumor diameter)×(shorter tumor diameter)^2/2. […] The tumor size was measured on day 0, and 12 hours, 24 hours, 72 hours, and 7 days after the administration. […]

[7] = system: cultured human colorectal cancer cells, HT-29; experiment: Serum metabolome (CE-TOFMS) of HT-29 cancer-bearing mice after CPT-11; type: in vivo, nude mice (BALB/cAJcl-nu/nu); settings: HT-29 transplanted, 90 mg/kg as CPT-11
Procedure: as §3, with “After the centrifugation of the collected blood at 10,000 rpm for 10 minutes, a serum fraction was frozen with liquid nitrogen and stored at −80° C. until the serum fraction was used in preparation of a sample for metabolome analysis. As a control group, a cancer cell-non-transplanted group was produced and the same treatment was carried out.” left out
as §4

[8] = 12 hours after the administration
[9] = 24 hours after the administration

Structure (SMILES): CCc1c2c(nc3ccc(O[C@@H]4O[C@H](C(=O)O)[C@@H](O)[C@H](O)[C@H]4O)cc13)-c1cc3c(c(=O)n1C2)COC(=O)[C@]3(O)CC [SN-38G]
- cytotoxicity [1]: no cytotoxicity

Structure (SMILES): CCc1c2c(nc3ccc(O)cc13)-c1cc3c(c(=O)n1C2)COC(=O)[C@]3(O)CC [SN-38, 7-ethyl-10-hydroxycamptothecin]
- sensitivity of cells to SN-38 [2]: high sensitivity
- sensitivity of cells to SN-38 [3]: low sensitivity

Structure (SMILES): CCc1c2c(nc3ccc(OC(=O)N4CCC(N5CCCCC5)CC4)cc13)-c1cc3c(c(=O)n1C2)COC(=O)[C@]3(O)CC [CPT-11, Irinotecan hydrochloride]
- tumor size, CPT-11 group with HCT-116 vs CPT-11 group with HT-29 ([4]; 90 mg/kg as CPT-11, tail vein): significant difference (p=0.04979)
- tumor size, CPT-11 administration group vs solvent administration group ([4]; HCT-116 transplanted, 90 mg/kg as CPT-11, tail vein): significant difference (p=0.01319)
- sensitivity of HCT-116 to CPT-11 compared to HT-29 ([4]; conclusion from tumor size): high sensitivity
- serum expression level of peak at m/z 104.070 (N,N-dimethyl glycine), CPT-11 administration group [5, 8]: decreased to the same level as in the control group
- serum expression level of peak at m/z 166.086 (L-phenylalanine), CPT-11 administration group [5, 9]: decreased to the same level as in the control group
- sensitivity of HT-29 to CPT-11 compared to HCT-116 [6]: low sensitivity
- serum expression level of peak at m/z 104.070 (N,N-dimethyl glycine), CPT-11 group vs solvent group [7, 8]: the same level
- serum expression level of peak at m/z 166.086 (L-phenylalanine), CPT-11 group vs solvent group [7, 9]: the same level
